Measurements published in PMC8836076, “A Fungal Versatile GH10 Endoxylanase and Its Glycosynthase Variant: Synthesis of Xylooligosaccharides and Glycosides of Bioactive Phenolic Compounds” (International Journal of Molecular Sciences, 2022).

Target: T1, rXynSOS (Talaromyces amestolkiae, UniProt A0A364LCP8, E255G)
T1 construct: gene BHQ10_009513; mature protein (389 aa, GH10 domain + C-terminal CBM1), 19-aa signal peptide removed, pPIC9 in Pichia pastoris GS115, no tag, starts QLNTAAK (from primer), glycosylated, 53 kDa monomer
Assay: ESI-MS and NMR of xylooligosaccharide synthesis
Type: biochemical
Conditions: glycosynthase; 20 mM X2F as only reactant (donor and acceptor), 50 mM sodium acetate pH 5, 25 °C, 16 h

T1 sequence (A0A364LCP8 entry or part of it E255G): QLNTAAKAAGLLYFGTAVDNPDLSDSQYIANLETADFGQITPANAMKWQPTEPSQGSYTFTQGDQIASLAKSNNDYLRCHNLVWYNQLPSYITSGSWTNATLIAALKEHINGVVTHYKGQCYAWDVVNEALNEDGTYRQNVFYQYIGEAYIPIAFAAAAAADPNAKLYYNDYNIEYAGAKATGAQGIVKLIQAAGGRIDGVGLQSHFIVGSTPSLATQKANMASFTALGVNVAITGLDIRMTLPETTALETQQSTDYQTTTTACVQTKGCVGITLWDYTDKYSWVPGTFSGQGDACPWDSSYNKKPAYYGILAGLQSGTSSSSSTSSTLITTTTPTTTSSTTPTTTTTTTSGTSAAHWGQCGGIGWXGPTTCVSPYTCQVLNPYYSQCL

With `O[C@@H]1[C@@H](O)[C@H](O[C@@H]2CO[C@H](F)[C@H](O)[C@H]2O)OC[C@H]1O` [X2F, xylobiose-fluoride] the “ESI-MS and NMR of xylooligosaccharide synthesis” value was “reaction with X2F as the only reactant molecule (no acceptor was added)”.
